Patent US20100048950A1 (BOEHRINGER INGELHEIM INTERNATIONAL GMBH, priority 2007, published 2010)

target: T1, human glucocorticoid receptor (GR) complex (Homo sapiens, UniProt P04150); assay: Glucocorticoid receptor competitive binding assay (fluorescence polarization); details: competition with TAMRA-labeled dexamethasone, read-out: potent activity (IC50) in the GR binding assay
T1 construct: made in house; host or cells: insect expression system (baculovirus lysate)
T1 sequence (P04150 1-777): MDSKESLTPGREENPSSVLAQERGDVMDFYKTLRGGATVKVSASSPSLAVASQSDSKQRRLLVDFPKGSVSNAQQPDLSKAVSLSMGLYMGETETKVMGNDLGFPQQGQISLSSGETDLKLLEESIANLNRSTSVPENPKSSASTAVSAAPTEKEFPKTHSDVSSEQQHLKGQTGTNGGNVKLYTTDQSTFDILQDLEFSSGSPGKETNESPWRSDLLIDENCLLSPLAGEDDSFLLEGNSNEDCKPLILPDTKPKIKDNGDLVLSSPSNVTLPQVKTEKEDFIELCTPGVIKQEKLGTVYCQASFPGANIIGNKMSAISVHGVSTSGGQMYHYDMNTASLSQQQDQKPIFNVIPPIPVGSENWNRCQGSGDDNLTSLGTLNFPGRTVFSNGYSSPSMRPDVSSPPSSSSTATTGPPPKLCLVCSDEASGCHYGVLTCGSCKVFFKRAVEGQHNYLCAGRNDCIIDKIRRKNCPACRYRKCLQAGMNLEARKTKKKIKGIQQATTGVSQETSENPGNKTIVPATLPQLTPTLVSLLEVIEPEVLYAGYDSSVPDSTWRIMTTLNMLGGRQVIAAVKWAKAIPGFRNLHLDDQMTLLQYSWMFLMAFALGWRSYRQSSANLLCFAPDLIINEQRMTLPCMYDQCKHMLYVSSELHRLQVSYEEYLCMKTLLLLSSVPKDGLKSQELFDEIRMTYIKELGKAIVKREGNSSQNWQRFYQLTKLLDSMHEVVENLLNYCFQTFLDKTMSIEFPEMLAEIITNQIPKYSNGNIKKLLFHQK
Protocol: Compounds of the invention were evaluated for binding to the steroid receptor by a fluorescence polarization competitive binding assay. Detailed descriptions for preparation of recombinant glucocorticoid receptor (GR) complex used in the assay is described in U.S. Patent Application Publication No. US 2003/0017503, filed May 20, 2002, and incorporated herein by reference in its entirety. Preparation of the tetramethylrhodamine (TAMRA)-labeled dexamethasone probe was accomplished using a standard literature procedure (M. Pons et al., J. Steroid Biochem., 1985, 22, pp. 267-273).
The affinity of the probe for the steroid receptor was then determined in a titration experiment. The fluorescence polarization value of the probe in assay buffer was measured on an SLM-8100 fluorometer using the excitation and emission maximum values described above. Aliquots of expression vector lysate were added and fluorescence polarization was measured after each addition until no further change in polarization value was observed. Non-linear least squares regression analysis was used to calculate the dissociation constant of the probe from the polarization values obtained for lysate binding to the probe.
This assay uses fluorescence polarization (FP) to quantitate the ability of test compounds to compete with tetramethylrhodamine (TAMRA)-labeled dexamethasone for binding to a human glucocorticoid receptor (GR) complex prepared from an insect expression system. The assay buffer was: 10 mM TES, 50 mM KCl, 20 mM Na2MoO4.2H2O, 1.5 mM EDTA, 0.04% w/v CHAPS, 10% v/v glycerol, 1 mM dithiothreitol, pH 7.4. Test compounds were dissolved to 1 mM in neat DMSO and then further diluted to 10× assay concentration in assay buffer supplemented with 10% v/v DMSO. Test compounds were serially diluted at 10× assay concentrations in 10% DMSO-containing buffer in 96-well polypropylene plates. Binding reaction mixtures were prepared in 96-well black Dynex microtiter plates by sequential addition of the following assay components to each well: 15 μL of 10× test compound solution, 85 μL of GR-containing baculovirus lysate diluted 1:170 in assay buffer, and 50 μL of 15 nM TAMRA-labeled dexamethasone. Positive controls were reaction mixtures containing no test compound; negative controls (blanks) were reaction mixtures containing 0.7 μM to 2 μM dexamethasone. The binding reactions were incubated for 1 hour at room temperature and then read for fluorescence polarization in the LJL Analyst set to 550 nm excitation and 580 nm emission, with the Rhodamine 561 dichroic mirror installed. IC50 values were determined by iterative non-linear curve fitting of the FP signal data to a 4-parameter logistic equation.

SMILES	IC50
COc1ccc(N(Cc2ccccc2)CC(NS(=O)(=O)c2c(C)cc(C)cc2C)C(F)(F)F)cc1 (centres unmarked) [N-(1-{[Benzyl-(4-methoxyphenyl)amino]methyl}-2,2,2-trifluoroethyl)-2,4,6-trimethylbenzenesulfonamide]	≤ 100 nM
Cc1cc(C)c(S(=O)(=O)NC(COc2cc(F)c(F)cc2F)C(F)(F)F)c(C)c1 (centres unmarked) [2,4,6-Trimethyl-N-[2,2,2-trifluoro-1-(2,4,5-trifluorophenoxymethyl)ethyl]benzenesulfonamide]	≤ 100 nM
Cc1cc(C)c(S(=O)(=O)NC(COc2cccc3c2CCCC3)C(F)(F)F)c(C)c1 (centres unmarked) [2,4,6-Trimethyl-N-[2,2,2-trifluoro-1-(5,6,7,8-tetrahydronaphthalen-1-yloxymethyl)ethyl]benzenesulfonamide]	≤ 100 nM
Cc1cc(C)c(S(=O)(=O)NC(CSc2cccc(C(F)(F)F)c2)C(F)(F)F)c(C)c1 (centres unmarked) [2,4,6-Trimethyl-N-[2,2,2-trifluoro-1-(3-trifluoromethylphenylsulfanylmethyl)ethyl]benzenesulfonamide]	≤ 100 nM
Cc1cc(C)c(S(=O)(=O)NC(CNc2ccc(C)cc2F)C(F)(F)F)c(C)c1 (centres unmarked) [2,4,6-Trimethyl-N-{2,2,2-trifluoro-1-[(2-fluoro-4-methylphenylamino)methyl]ethyl}benzenesulfonamide]	≤ 100 nM
Cc1cc(C)c(S(=O)(=O)NC(COc2ccc(C(F)(F)F)cc2)C(F)(F)F)c(C)c1 (centres unmarked) [2,4,6-Trimethyl-N-[2,2,2-trifluoro-1-(4-trifluoromethylphenoxymethyl)ethyl]benzenesulfonamide]	≤ 100 nM
COC(=O)c1cccc(NCC(NS(=O)(=O)c2c(C)cc(C)cc2C)C(F)(F)F)c1 (centres unmarked) [3-[3,3,3-Trifluoro-2-(2,4,6-trimethylbenzenesulfonylamino)propylamino]benzoic acid methyl ester]	≤ 100 nM
Cc1cc(C)c(S(=O)(=O)NC(COc2ccc(Cl)cc2)C(F)(F)F)c(C)c1 (centres unmarked)	≤ 100 nM
Cc1cc(C)c(S(=O)(=O)NC(COc2ccc(F)cc2C)C(F)(F)F)c(C)c1 (centres unmarked) [2,4,6-Trimethyl-N-[2,2,2-trifluoro-1-(4-fluoro-2-methylphenoxymethyl)ethyl]benzenesulfonamide]	≤ 100 nM
Cc1cc(C)c(S(=O)(=O)NC(CN(C)c2ccccc2OC(F)(F)F)C(F)(F)F)c(C)c1 (centres unmarked) [2,4,6-Trimethyl-N-(2,2,2-trifluoro-1-{[methyl-(2-trifluoromethoxyphenyl)amino]methyl}-ethyl)benzenesulfonamide]	≤ 100 nM
COc1cc(NCC(NS(=O)(=O)c2c(C)cc(C)cc2C)C(F)(F)F)cc(C(F)(F)F)c1 (centres unmarked) [2,4,6-Trimethyl-N-{2,2,2-trifluoro-1-[(3-methoxy-5-trifluoromethylphenylamino)methyl]ethyl}benzenesulfonamide]	≤ 100 nM
Cc1cc(C)c(S(=O)(=O)NC(CNc2cccc(C(F)(F)F)c2)C(F)(F)F)c(C)c1 (centres unmarked) [2,4,6-Trimethyl-N-{2,2,2-trifluoro-1-[(3-trifluoromethylphenylamino)methyl]ethyl}benzenesulfonamide]	≤ 100 nM

The next lines start with the values.

IC50	SMILES
≤ 100 nM	CCN(CC(NS(=O)(=O)c1c(C)cc(C)cc1C)C(F)(F)F)c1ccccc1 (centres unmarked) [N-{1-[(Ethylphenylamino)methyl]-2,2,2-trifluoroethyl}-2,4,6-trimethylbenzenesulfonamide]
≤ 100 nM	Cc1cc(C)c(S(=O)(=O)NC(CNc2c(F)cccc2F)C(F)(F)F)c(C)c1 (centres unmarked) [N-{1-[(2,6-Difluorophenylamino)methyl]-2,2,2-trifluoroethyl}-2,4,6-trimethylbenzenesulfonamide]
≤ 100 nM	Cc1cc(C)c(S(=O)(=O)NC(CSc2cccc(Br)c2)C(F)(F)F)c(C)c1 (centres unmarked) [N-[1-(3-Bromophenylsulfanylmethyl)-2,2,2-trifluoroethyl]-2,4,6-trimethylbenzenesulfonamide]
≤ 100 nM	Cc1cc(C)c(S(=O)(=O)NC(CSc2ccc(Cl)cc2Cl)C(F)(F)F)c(C)c1 (centres unmarked) [N-[1-(2,4-Dichlorophenylsulfanylmethyl)-2,2,2-trifluoroethyl]-2,4,6-trimethylbenzenesulfonamide]
≤ 100 nM	Cc1cc(C)c(S(=O)(=O)NC(CSc2ccc(F)c(Cl)c2)C(F)(F)F)c(C)c1 (centres unmarked) [N-[1-(3-Chloro-4-fluorophenylsulfanylmethyl)-2,2,2-trifluoroethyl]-2,4,6-trimethylbenzenesulfonamide]
≤ 100 nM	Cc1cc(C)c(S(=O)(=O)NC(COc2ccc(Cl)cc2Cl)C(F)(F)F)c(C)c1 (centres unmarked) [N-[1-(2,4-Dichlorophenoxymethyl)-2,2,2-trifluoroethyl]-2,4,6-trimethylbenzenesulfonamide]
≤ 100 nM	Cc1cc(C)c(S(=O)(=O)NC(COc2ccc(C#N)cc2)C(F)(F)F)c(C)c1 (centres unmarked) [N-[1-(4-Cyanophenoxymethyl)-2,2,2-trifluoroethyl]-2,4,6-trimethylbenzenesulfonamide]
≤ 100 nM	Cc1cc(C)c(S(=O)(=O)NC(CSc2ccccc2C(C)(C)C)C(F)(F)F)c(C)c1 (centres unmarked) [N-[1-(2-tert-Butylphenylsulfanylmethyl)-2,2,2-trifluoroethyl]-2,4,6-trimethylbenzenesulfonamide]
≤ 100 nM	Cc1cc(C)c(S(=O)(=O)NC(COc2ccc(Br)cc2)C(F)(F)F)c(C)c1 (centres unmarked) [N-[1-(4-Bromophenoxymethyl)-2,2,2-trifluoroethyl]-2,4,6-trimethylbenzenesulfonamide]
≤ 100 nM	Cc1ccc(SCC(NS(=O)(=O)c2c(C)cc(C)cc2C)C(F)(F)F)c(C)c1 (centres unmarked) [N-[1-(2,4-Dimethylphenylsulfanylmethyl)-2,2,2-trifluoroethyl]-2,4,6-trimethylbenzenesulfonamide]
≤ 100 nM	Cc1ccc(NCC(NS(=O)(=O)c2c(C)cc(C)cc2C)C(F)(F)F)c(C)c1 (centres unmarked) [N-{1-[(2,4-Dimethylphenylamino)methyl]-2,2,2-trifluoroethyl}-2,4,6-trimethylbenzenesulfonamide]
≤ 100 nM	COc1ccc(NCC(NS(=O)(=O)c2c(C)cc(C)cc2C)C(F)(F)F)c(OC)c1 (centres unmarked) [N-{1-[(2,4-Dimethoxyphenylamino)methyl]-2,2,2-trifluoroethyl}-2,4,6-trimethylbenzenesulfonamide]
≤ 100 nM	Cc1cc(C)c(S(=O)(=O)NC(CNc2cc(Cl)ccc2Cl)C(F)(F)F)c(C)c1 (centres unmarked) [N-{1-[(2,5-Dichlorophenylamino)methyl]-2,2,2-trifluoroethyl}-2,4,6-trimethylbenzenesulfonamide]
≤ 100 nM	Cc1cc(C)c(S(=O)(=O)NC(COc2cccc(Cl)c2)C(F)(F)F)c(C)c1 (centres unmarked) [N-[1-(3-Chlorophenoxymethyl)-2,2,2-trifluoroethyl]-2,4,6-trimethylbenzenesulfonamide]
≤ 100 nM	Cc1cc(C)c(S(=O)(=O)NC(CNc2ccc(F)cc2F)C(F)(F)F)c(C)c1 (centres unmarked) [N-{1-[(2,4-Difluorophenylamino)methyl]-2,2,2-trifluoroethyl}-2,4,6-trimethylbenzenesulfonamide]
≤ 100 nM	COc1ccc(OC)c(SCC(NS(=O)(=O)c2c(C)cc(C)cc2C)C(F)(F)F)c1 (centres unmarked) [N-[1-(2,5-Dimethoxyphenylsulfanylmethyl)-2,2,2-trifluoroethyl]-2,4,6-trimethylbenzenesulfonamide]
≤ 100 nM	Cc1cc(C)c(S(=O)(=O)NC(COc2cc(F)ccc2Br)C(F)(F)F)c(C)c1 (centres unmarked) [N-[1-(2-Bromo-5-fluorophenoxymethyl)-2,2,2-trifluoroethyl]-2,4,6-trimethylbenzenesulfonamide]
